The subject of experiment [1] is Mus musculus. The experiment in a line: Inhibition of choroidal neovascularization in CD36-/- C57BL/6 mouse model of FITC-conjugated dextran infusion following laser-induced posterior retinal injury administered in to vitreous tissue. Format: functional, organism-based.
Experiment [2] concerns Aorta. The experiment in a line: Inhibition of vascular sprouting in CD36-/- C57BL/6 mouse aortic rings exposed on day 4 to 6. Format: functional, tissue-based.
Experiment [3] concerns Aorta. Nature of the experiment: Inhibition of vascular sprouting in CD36+/+ C57BL/6 mouse aortic rings exposed on day 4 to 6. The class given is functional, tissue-based.
The subject of experiment [4] is Mus musculus. The experiment in a line: Inhibition of choroidal neovascularization in CD36+/+ C57BL/6 mouse model of FITC-conjugated dextran infusion following laser-induced posterior retinal injury administered in to vitreous tissue. Format: functional.

Calls of active or inactive are those of the source. The calls are words filed in the database; no cut-off is given here. Starred links: 1 amine or outer side, 2 acyl side, 3 side chain; linkers in the order of their positions; H or OH if unused. Non-standard residues stand in square brackets, D forms with d. Residues, ends and D or L forms follow the SMILES beside them. azaTyr = O=C(N(Cc1ccc(O)cc1)N[*:1])[*:2]

Take `C[C@H](NC(=O)[C@@H](Cc1c[nH]c2ccccc12)NC(=O)[C@@H](N)Cc1cnc[nH]1)C(=O)NN(Cc1ccc(O)cc1)C(=O)N[C@H](Cc1ccccc1)C(=O)N[C@@H](CCCCN)C(N)=O` (H-H[dW]A[azaTyr][dF]K-NH2): the inhibition entry in experiment [1] and in experiment [2] was “inactive” each time. In experiment [3], the inhibition entry is “Dose-dependent effect”. The “inhibition (INH)” value in experiment [4] is over 50%.

(Values after ChEMBL document CHEMBL4476864, “Azapeptides as cd36 binding compounds” (2013).)
